From PubChem BioAssay (NCI)
“And” between values parts separate entries of the source, which are not always exact repeats. Equal values may be shown once.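 Step 1: Grow cells in 96-well plates. Step 2: Expose to compound for 48 hours at 5 concentrations. Step 3: Interpolate endpoints linearly; if unreached, use highest concentration. GI50 is the concentration that inhibits growth by half. TGI is the concentration that stops growth completely.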

Columns and labels:
Test in all cases: NCI anticancer screen, dose series, 48 h
CCRF-CEM leukemia = system: CCRF-CEM leukemia
OVCAR-8 ovarian = system: OVCAR-8 ovarian
EKVX NSCLC = system: EKVX NSCLC
MDA-MB-435 = system: MDA-MB-435
TK-10 renal = system: TK-10 renal
UACC-257 melanoma = system: UACC-257 melanoma
SN12C renal = system: SN12C renal
SK-MEL-5 melanoma = system: SK-MEL-5 melanoma
NCI-H23 lung = system: NCI-H23 lung
SF-539 CNS = system: SF-539 CNS

Structure (SMILES)	GI50 (CCRF-CEM leukemia)	TGI (CCRF-CEM leukemia) [µM]	GI50 (OVCAR-8 ovarian) [µM]	TGI (OVCAR-8 ovarian) [µM]	GI50 (EKVX NSCLC) [µM]	TGI (EKVX NSCLC) [µM]	GI50 (MDA-MB-435) [µM]	TGI (MDA-MB-435) [µM]	GI50 (TK-10 renal) [µM]	TGI (TK-10 renal) [µM]	GI50 (UACC-257 melanoma) [µM]	TGI (UACC-257 melanoma) [µM]	GI50 (SN12C renal) [µM]	TGI (SN12C renal) [µM]	GI50 (SK-MEL-5 melanoma) [µM]	TGI (SK-MEL-5 melanoma) [µM]	GI50 (NCI-H23 lung) [µM]	TGI (NCI-H23 lung) [µM]	GI50 (SF-539 CNS) [µM]	TGI (SF-539 CNS) [µM]
CC(C)(Oc1cccc(N2CCC[C@@H](C(=O)N(Cc3ccc(-c4cn[nH]c4)cc3)C3CC3)C2)c1)C(=O)N1CCNCC1	24.1 µM	> 100	18.6	42.7	13.7	27.9	13.8	27.2	14.8	28.4	12.2	25.9	12.1	25.3	10.3	22.1	14	28.9	11.4	24.2
Nc1nc(N)c2c(Cl)c(CNc3ccc(Cl)c(Cl)c3)ccc2n1	–	12.1	–	16	–	19.2	–	17.5	–	12.4	–	19.4	–	23.3	–	4.65	–	5.43	–	1.21
O=C(NNC1=NS(=O)(=O)c2ccccc2N1c1ccccc1)c1cnccn1	> 100 µM	> 100	> 100	> 100	> 100	> 100	> 100	> 100	> 100	> 100	> 100	> 100	> 100	> 100	> 100	> 100	> 100	> 100	> 100	> 100
C=CCc1cc(O)ccc1O	2.34 µM	14.5	28.7	> 100	41.1	> 100	19.9	57.1	24.9	69.2	> 100	> 100	11	49.4	43.3	> 100	> 100	> 100	14.2	70.2
N#Cc1ncc(-c2ccc(C(F)(F)F)cc2)c(NC2CCCCCC2)n1	9.97 µM	> 100	70.8	> 100	–	–	29.1	> 100	91	> 100	13.7	> 100	34.8	> 100	33.5	> 100	6.48	> 100	> 100	> 100
NC(=O)NC(=O)Nc1ccc(Br)cc1	–	> 15.3	–	> 34.6	–	48.4	–	> 22	–	> 100	–	> 100	–	> 100	–	> 18.6	–	> 33.3	–	> 100
COc1ccc(/C=C/C(=O)OC2CC34CCNC35CC(OC5(OC)C2OC)c2ccc(OC)c(O)c24)cc1O (stereo not given)	30.8 µM and > 100 µM	> 100	–	> 100	–	> 100	–	> 100	–	> 100	–	> 100	–	> 100	–	> 100	–	> 100	–	> 100
Cc1cc2c(C(C)C)c(O)c(O)c(/C=N/O)c2c(O)c1-c1c(C)cc2c(C(C)C)c(O)c(O)c(/C=N/O)c2c1O	3.6 µM	14.7	2.94	13.2	1.94	11.4	2.78	12.1	3.13	13.7	2.97	8.76	4.34	18.5	1.43	3.82	1.92	5.74	1.85	5.37
CC(=O)NC(CCc1ccc(Cl)c(Cl)c1)c1cccc(O)c(=O)c1 (stereo not given)	0.398 µM	16.3	0.346	13.1	–	–	1.07	18.9	0.864	> 100	0.649	4.4	0.485	13.1	0.234	1.14	1.11	18.9	0.514	5.35
COC(=O)NC1=Nc2ccccc2C(=O)NN1	–	> 100	–	> 100	–	> 100	–	> 100	–	> 100	–	> 100	–	> 100	–	> 100	–	> 100	–	> 100
C/C(=N\O)C1CC(CC(=O)O)C1(C)C (stereo not given)	–	> 100	–	> 100	–	> 100	–	> 100	–	> 100	–	> 100	–	> 100	–	> 100	–	> 100	–	> 100
Cc1[nH]c(N)nc(=S)c1CCCNc1ccccc1	–	> 100	–	> 100	–	> 100	–	> 100	–	> 100	–	> 100	–	> 100	–	80	–	> 100	–	> 100
CCc1nc(N)nc(N)c1-c1ccc(N2CCNCC2)c([N+](=O)[O-])c1	–	> 72.1	–	> 100	–	> 100	–	> 100	–	> 100	–	57.7	–	> 100	–	28.3	–	> 100	–	> 100
CCN1C[C@@H](C)n2c(c(O)c3c(=O)n(Cc4ccc(F)c(Cl)c4)nc(C(=O)NC)c32)C1=O	3.57 µM	> 100	3.34	> 100	–	–	3.21	> 100	2.95	12.6	2.32	6.77	3.08	> 100	1.98	4.49	2.7	8.62	2.32	5.37
CCN(CC)CCOc1ccc2c(-c3ccccc3)c(-c3ccc(OC)cc3)c(=O)oc2c1	3.34 µM	15.4	13.1	29.1	6.14	20.3	3.3	10.6	11.6	25.2	2.47	7	10.8	23.9	1.77	3.55	4.11	16.5	5.48	19.1
CCCCNC(=O)CC1=C(C)/C(=C/c2[nH]c(-c3ccc[nH]3)cc2OC)N=C1C	1.71 µM	8.88	3.44	11.1	2.29	15.5	2.87	9.71	2.83	8.8	2.26	4.54	–	–	–	–	3.03	21	2.75	9.31
C=C(CC)C(=O)c1ccc(OCC(=O)O)c(Cl)c1Cl	–	> 76.3	–	37.2	–	38.3	–	32.3	–	30.2	–	55.4	–	47.5	–	> 55.7	–	> 56.2	–	24.4
COc1cccc(N2C(=N)/C(=C3\Nc4ccccc4S3)CC2=O)c1	1.91 µM	> 100	7.9	> 100	> 100	> 100	> 100	> 100	17.8	> 100	> 100	> 100	> 100	> 100	7.78	> 100	39.4	> 100	5.4	> 100
C=C1CC[C@@](C)(c2cc(Br)c(C)cc2OC(C)=O)[C@H]1C	8.88 µM	26.6	13.2	27.8	14.7	28.2	13.3	27.5	12	25	16.1	30.2	11.4	23.8	15.6	29.2	13.9	28.2	13.5	26.4
Nc1ncc(-c2ccc3ncnc(N4CCc5cc(F)c(Cl)cc54)c3c2)cc1C=O	2.12 µM	> 100	2.54	> 100	0.371	> 100	0.909	6.97	0.248	3.65	1.64	> 100	1.05	> 100	1.87	4.54	2.35	> 100	2.38	> 100
O=C(O)C1CC[N-]CC1.O=C(O)C1CC[N-]CC1.[NH2-].[NH2-].[Pt+4]	> 100 µM	> 100	> 100	> 100	> 100	> 100	> 100	> 100	> 100	> 100	> 100	> 100	> 100	> 100	> 100	> 100	> 100	> 100	> 100	> 100
O=C(O)c1cc(-c2ccc(-c3ccccc3)cc2)nc2cc3ccccc3cc12	–	39.8	–	> 100	–	> 100	–	> 100	–	> 100	–	> 100	–	> 100	–	> 100	–	> 100	–	> 100
Cc1cc2c3c(nc4ccccc42)C(=O)c2cccnc2-c3n1	0.171 µM	1.4	0.453	–	0.707	2.49	0.162	0.332	–	–	0.169	0.55	0.146	1.82	0.0808	0.354	0.142	0.466	0.495	2.21
CCOC(=O)C(Cc1ccccc1)n1c(O)c(/C=N/c2ncc(Cc3ccc(Cl)cc3Cl)s2)sc1=S (stereo not given)	1.87 µM	> 100	2.07	> 100	2.07	> 100	3.38	> 100	–	–	2.72	8.57	1.59	> 100	1.52	4.13	1.9	12.4	2.58	6.95
COC(=O)C1C(=O)C(C(=O)OC)C2CCC1N2C (stereo not given)	–	> 78.1	–	> 100	–	> 100	–	> 79.3	–	> 100	–	> 100	–	> 100	–	> 100	–	–	–	> 100
CC(=O)CCC[C@@H](C)[C@@H]1O[C@H]([C@@]2(C)CCC(=O)O2)CC2[C@H]1OC(=O)C21CC1 (stereo not given in full)	> 100 µM	> 100	> 100	> 100	8.03	49.5	> 100	> 100	–	–	50.7	> 100	> 100	> 100	21.7	92.4	15.3	59.6	60.6	> 100
Oc1ccc(/C=N/NC(=S)Nc2ccccc2)nc1	0.938 µM	> 100	0.586	> 100	–	–	2.19	> 100	4.18	> 100	2.18	6.84	1.07	> 100	0.754	3.36	3.34	> 100	0.851	6.19
Cc1ncnc2c1ccn2[C@@H]1C[C@H](Oc2cc(C(F)F)c(F)c3c2CNCC3)[C@@H](O)[C@H]1O	> 100 µM	> 100	> 100	> 100	> 100	> 100	> 100	> 100	> 100	> 100	> 100	> 100	> 100	> 100	> 100	> 100	–	–	> 100	> 100
Oc1c(Cl)cc(Cl)c(Cl)c1Cc1c(O)c(Cl)cc(Cl)c1Cl	–	–	0.941	16.5	0.973	16.7	1.93	12.8	3.04	35.5	2.06	9.3	0.431	22.2	0.712	3.04	0.593	12	3.39	18.8
Cc1c(Br)c(Br)c2c3c1nc(N1CCNCC1)n3CCC2	–	–	2.08	5.46	1.9	4.32	1.73	3.22	1.56	3.12	2.13	4.2	1.42	2.85	1.89	3.42	2.01	4.22	1.64	3.09
